Earlier results in patent US10695318B2, “Methods and compositions for improving cognitive function” (MARS, Incorporated, priority 2006, dated 2020).

System: global CBF
Settings: inhalation of 5% C02 as vasodilative stimulus

O=C=O [C02]
global CBF increases: approximately 87%
